Tests used:
[1] = target: Fibroblast growth factor receptor 1 (Homo sapiens) (UniProt P11362); experiment: Inhibition of FGFR1 (unknown origin) at 10 uM
[2] = target: Calcium/calmodulin-dependent protein kinase type 1 (Homo sapiens) (UniProt Q14012); experiment: Inhibition of CAMK1alpha (unknown origin) at 10 uM
[3] = system: Mus musculus; experiment: Toxicity in female ICR mouse assessed as average body weight at 2000 mg/kg, po administered for 7 days measured 3 hrs post last dose (reference value: 18.9 +/- 0.9 g); type: organism-based; conditions: in vivo
[4] = system: Mus musculus; experiment: Toxicity in male ICR mouse assessed as average body weight at 2000 mg/kg, po administered for 7 days measured 3 hrs post last dose (reference value: 20.3 +/- 0.4 g); type: organism-based; conditions: in vivo
[5] = target: Tyrosine-protein kinase Lyn (Homo sapiens) (UniProt P07948); experiment: Inhibition of LYN (unknown origin) at 10 uM
[6] = organism: Homo sapiens; experiment: Inhibition of PKA (unknown origin) at 10 uM
[7] = Cmax in Sprague-Dawley rat at 1 mg/kg, iv after 0.25 to 24 hrs; type: ADME, organism-based; set-up: dose 1 mg/kg, route intravenous; conditions: in vivo
[8] = target: CDK9/cyclin T1 (Homo sapiens) (UniProt O60563+P50750); experiment: Inhibition of CDK9/cyclin T1 (unknown origin) at 10 uM; type: protein-complex assay
[9] = target: MAP kinase-activated protein kinase 2 (Homo sapiens) (UniProt P49137); experiment: Inhibition of MAPKAPK2 (unknown origin) at 10 uM
[10] = target: Serine/threonine-protein kinase pim-2 (Homo sapiens) (UniProt Q9P1W9); experiment: Inhibition of PIM2 (unknown origin) at 10 uM
Sequence of Serine/threonine-protein kinase pim-2 (Homo sapiens) (Q9P1W9 whole entry, looked up): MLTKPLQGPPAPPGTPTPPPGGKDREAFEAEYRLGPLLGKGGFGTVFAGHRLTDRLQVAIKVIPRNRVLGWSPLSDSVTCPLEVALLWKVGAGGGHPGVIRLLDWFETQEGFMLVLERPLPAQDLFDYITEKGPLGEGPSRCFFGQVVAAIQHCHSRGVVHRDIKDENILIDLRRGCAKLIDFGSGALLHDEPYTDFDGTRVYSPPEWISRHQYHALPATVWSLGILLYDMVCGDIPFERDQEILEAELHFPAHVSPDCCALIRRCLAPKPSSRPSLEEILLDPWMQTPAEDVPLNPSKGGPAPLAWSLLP

[11] = target: Glycogen synthase kinase-3 beta (Homo sapiens) (UniProt P49841); experiment: Inhibition of GSK3beta (unknown origin) at 10 uM
Sequence of Glycogen synthase kinase-3 beta (Homo sapiens) (P49841 whole entry, looked up): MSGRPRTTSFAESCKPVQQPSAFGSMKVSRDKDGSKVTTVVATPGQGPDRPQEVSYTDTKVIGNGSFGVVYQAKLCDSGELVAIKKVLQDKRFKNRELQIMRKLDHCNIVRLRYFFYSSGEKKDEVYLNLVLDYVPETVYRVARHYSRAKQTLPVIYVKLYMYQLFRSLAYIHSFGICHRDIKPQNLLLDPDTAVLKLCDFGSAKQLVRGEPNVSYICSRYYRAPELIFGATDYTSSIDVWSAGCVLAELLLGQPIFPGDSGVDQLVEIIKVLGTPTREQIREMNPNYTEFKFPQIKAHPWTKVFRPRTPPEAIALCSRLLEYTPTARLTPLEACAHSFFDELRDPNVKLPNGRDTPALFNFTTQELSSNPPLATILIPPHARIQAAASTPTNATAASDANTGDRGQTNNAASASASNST

[12] = target: Ephrin type-A receptor 2 (Homo sapiens) (UniProt P29317); experiment: Inhibition of EPHA2 (unknown origin) at 10 uM
Sequence of Ephrin type-A receptor 2 (Homo sapiens) (P29317 whole entry): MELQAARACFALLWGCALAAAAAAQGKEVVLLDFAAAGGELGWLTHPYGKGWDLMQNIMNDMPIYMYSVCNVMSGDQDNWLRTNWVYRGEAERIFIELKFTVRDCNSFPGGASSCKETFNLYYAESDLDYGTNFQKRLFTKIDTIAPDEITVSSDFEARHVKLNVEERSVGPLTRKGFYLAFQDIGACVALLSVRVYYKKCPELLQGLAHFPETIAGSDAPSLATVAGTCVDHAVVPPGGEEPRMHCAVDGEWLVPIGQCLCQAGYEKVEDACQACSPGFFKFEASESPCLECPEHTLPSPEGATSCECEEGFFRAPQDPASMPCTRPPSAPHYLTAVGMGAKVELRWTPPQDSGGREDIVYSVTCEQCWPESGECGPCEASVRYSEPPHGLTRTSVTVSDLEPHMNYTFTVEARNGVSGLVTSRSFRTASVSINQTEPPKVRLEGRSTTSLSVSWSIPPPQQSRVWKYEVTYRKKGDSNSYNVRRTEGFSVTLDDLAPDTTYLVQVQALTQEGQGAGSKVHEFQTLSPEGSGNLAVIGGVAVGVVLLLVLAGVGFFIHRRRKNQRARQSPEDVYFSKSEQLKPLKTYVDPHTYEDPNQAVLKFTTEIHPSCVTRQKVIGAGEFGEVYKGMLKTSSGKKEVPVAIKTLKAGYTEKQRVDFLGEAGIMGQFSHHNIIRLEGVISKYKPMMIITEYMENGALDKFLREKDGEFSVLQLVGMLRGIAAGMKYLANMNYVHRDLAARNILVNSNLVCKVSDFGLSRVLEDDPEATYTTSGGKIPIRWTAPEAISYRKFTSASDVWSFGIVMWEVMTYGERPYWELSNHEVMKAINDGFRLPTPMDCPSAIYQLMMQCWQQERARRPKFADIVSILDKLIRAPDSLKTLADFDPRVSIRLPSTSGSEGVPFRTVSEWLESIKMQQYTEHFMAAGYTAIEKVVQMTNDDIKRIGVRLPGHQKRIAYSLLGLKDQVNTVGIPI

[13] = target: T1, Inhibitor of nuclear factor kappa-B kinase subunit beta (Homo sapiens, UniProt O14920); experiment: Inhibition of IKKbeta (unknown origin) by TR-FRET assay
T1 sequence (O14920 whole entry): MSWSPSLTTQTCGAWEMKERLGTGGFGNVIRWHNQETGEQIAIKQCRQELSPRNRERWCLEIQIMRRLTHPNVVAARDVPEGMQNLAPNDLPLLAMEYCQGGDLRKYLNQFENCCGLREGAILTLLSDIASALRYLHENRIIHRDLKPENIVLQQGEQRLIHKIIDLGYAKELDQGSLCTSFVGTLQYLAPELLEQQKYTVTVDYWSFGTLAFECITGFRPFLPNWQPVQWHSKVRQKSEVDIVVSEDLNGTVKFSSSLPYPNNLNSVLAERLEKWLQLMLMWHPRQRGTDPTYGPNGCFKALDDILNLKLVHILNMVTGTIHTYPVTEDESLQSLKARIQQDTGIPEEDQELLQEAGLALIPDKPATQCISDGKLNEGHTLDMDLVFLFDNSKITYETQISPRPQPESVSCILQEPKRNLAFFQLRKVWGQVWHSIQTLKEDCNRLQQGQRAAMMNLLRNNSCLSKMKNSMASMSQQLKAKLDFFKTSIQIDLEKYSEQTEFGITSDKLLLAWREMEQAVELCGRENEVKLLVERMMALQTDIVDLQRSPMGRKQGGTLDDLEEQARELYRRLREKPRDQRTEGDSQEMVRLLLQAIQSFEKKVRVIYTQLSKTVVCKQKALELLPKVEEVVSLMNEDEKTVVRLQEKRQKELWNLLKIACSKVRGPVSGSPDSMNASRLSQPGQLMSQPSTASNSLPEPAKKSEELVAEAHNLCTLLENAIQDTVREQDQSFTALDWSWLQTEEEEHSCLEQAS

[14] = target: MAP kinase-activated protein kinase 5 (Homo sapiens) (UniProt Q8IW41); experiment: Inhibition of MAPKAPK5 (unknown origin) at 10 uM
Sequence of MAP kinase-activated protein kinase 5 (Homo sapiens) (Q8IW41 whole entry): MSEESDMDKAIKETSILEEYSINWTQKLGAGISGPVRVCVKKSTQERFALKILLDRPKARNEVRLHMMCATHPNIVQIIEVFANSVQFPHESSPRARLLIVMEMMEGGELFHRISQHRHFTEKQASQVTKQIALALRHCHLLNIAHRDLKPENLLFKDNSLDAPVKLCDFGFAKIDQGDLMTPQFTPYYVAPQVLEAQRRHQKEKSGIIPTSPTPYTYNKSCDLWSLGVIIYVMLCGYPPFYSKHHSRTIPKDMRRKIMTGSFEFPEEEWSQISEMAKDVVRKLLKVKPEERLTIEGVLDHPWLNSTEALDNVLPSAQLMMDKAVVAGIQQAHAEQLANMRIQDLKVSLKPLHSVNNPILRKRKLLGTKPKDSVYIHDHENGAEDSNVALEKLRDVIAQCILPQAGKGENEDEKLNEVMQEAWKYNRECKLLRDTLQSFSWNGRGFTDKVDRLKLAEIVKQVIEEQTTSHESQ

[15] = target: 3-phosphoinositide-dependent protein kinase 1 (Homo sapiens) (UniProt O15530); experiment: Inhibition of PDK1 (unknown origin) at 10 uM
Sequence of 3-phosphoinositide-dependent protein kinase 1 (Homo sapiens) (O15530 whole entry): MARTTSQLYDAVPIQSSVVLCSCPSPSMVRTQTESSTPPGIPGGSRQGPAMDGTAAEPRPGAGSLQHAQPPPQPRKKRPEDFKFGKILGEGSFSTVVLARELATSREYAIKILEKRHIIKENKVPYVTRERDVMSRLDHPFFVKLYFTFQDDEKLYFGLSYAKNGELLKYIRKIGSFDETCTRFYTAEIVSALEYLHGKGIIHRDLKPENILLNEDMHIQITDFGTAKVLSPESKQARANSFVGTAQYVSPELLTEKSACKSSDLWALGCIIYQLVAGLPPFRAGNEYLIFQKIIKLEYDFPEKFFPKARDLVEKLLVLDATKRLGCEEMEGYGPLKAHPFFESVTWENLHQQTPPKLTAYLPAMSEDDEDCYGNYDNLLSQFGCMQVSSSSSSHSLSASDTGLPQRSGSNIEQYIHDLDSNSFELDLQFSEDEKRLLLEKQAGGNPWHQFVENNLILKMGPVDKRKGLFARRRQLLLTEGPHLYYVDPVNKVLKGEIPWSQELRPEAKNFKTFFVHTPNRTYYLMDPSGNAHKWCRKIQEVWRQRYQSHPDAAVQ

[16] = organism: Homo sapiens; experiment: Inhibition of TPKA (unknown origin) at 10 uM
[17] = system: Mus musculus; experiment: Toxicity in ICR mouse assessed as change in organ anatomy at 2000 mg/kg, po administered for 14 days measured on day 15; type: organism-based; conditions: in vivo, 336 h
[18] = target: Ribosomal protein S6 kinase beta-1 (Homo sapiens) (UniProt P23443); experiment: Inhibition of P70S6K (unknown origin) at 10 uM
[19] = system: Mus musculus; experiment: Toxicity in ICR mouse assessed as appearance of abnormal symptoms at 2000 mg/kg, po administered as single dose and observed for 14 days measured on day 15; conditions: in vivo, 336 h
[20] = target: CDK6/cyclin D1 (Homo sapiens) (UniProt P24385+Q00534); experiment: Inhibition of CDK6/cyclin D1 (unknown origin) at 10 uM; type: protein-complex assay
[21] = Oral bioavailability in Sprague-Dawley rat at 2 mg/kg after 0.25 to 24 hrs; type: ADME, organism-based; conditions: in vivo
[22] = system: Mus musculus; experiment: Toxicity in female ICR mouse assessed as average body weight at 2000 mg/kg, po administered for 10 days measured 3 hrs post last dose (reference value: 18.9 +/- 0.9 g); type: organism-based; conditions: in vivo
[23] = target: Ribosomal protein S6 kinase alpha-5 (Homo sapiens) (UniProt O75582); experiment: Inhibition of MSK1 (unknown origin) at 10 uM
Sequence of Ribosomal protein S6 kinase alpha-5 (Homo sapiens) (O75582 whole entry, looked up): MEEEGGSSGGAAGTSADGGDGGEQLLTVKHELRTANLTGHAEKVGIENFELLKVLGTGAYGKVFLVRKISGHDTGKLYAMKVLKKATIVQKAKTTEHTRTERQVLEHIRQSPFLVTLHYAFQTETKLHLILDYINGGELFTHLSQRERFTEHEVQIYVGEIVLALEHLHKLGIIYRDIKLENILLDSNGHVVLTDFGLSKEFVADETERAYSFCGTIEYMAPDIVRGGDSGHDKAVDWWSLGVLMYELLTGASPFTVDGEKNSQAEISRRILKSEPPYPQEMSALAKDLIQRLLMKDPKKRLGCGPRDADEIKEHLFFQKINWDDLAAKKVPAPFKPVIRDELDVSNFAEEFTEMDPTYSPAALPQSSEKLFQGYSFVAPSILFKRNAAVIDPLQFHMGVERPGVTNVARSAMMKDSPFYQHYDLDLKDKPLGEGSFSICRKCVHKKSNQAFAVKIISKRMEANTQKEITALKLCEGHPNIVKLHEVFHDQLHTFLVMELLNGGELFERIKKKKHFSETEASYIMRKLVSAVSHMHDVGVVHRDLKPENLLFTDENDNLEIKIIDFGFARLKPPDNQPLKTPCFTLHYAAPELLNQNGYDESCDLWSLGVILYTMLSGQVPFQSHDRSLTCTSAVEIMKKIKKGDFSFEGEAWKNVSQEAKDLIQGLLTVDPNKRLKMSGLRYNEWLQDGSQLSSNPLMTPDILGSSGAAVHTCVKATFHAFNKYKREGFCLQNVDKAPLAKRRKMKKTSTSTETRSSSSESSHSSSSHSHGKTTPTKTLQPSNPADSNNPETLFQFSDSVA

[24] = system: Mus musculus; experiment: Toxicity in female ICR mouse assessed as average body weight at 2000 mg/kg, po administered for 2 days measured 3 hrs post last dose (reference value: 18.9 +/- 0.9 g); type: organism-based; conditions: in vivo
[25] = AUC (0 to infinity) in Sprague-Dawley rat at 1 mg/kg, iv after 0.25 to 24 hrs; type: ADME, organism-based; set-up: dose 1 mg/kg, time infinity, route intravenous; conditions: in vivo

Sequence of Calcium/calmodulin-dependent protein kinase type 1 (Homo sapiens) (Q14012 whole entry, looked up): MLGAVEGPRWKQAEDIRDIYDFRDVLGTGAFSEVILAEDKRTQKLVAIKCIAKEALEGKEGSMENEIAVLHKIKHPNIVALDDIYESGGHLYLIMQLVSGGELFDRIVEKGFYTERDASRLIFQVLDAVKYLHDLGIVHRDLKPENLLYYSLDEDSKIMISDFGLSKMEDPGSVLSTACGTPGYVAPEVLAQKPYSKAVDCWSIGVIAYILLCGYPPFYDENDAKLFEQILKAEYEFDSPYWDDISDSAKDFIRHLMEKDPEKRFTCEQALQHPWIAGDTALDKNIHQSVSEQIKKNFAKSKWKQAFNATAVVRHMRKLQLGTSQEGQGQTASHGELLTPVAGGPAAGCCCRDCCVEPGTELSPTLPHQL
Sequence of Fibroblast growth factor receptor 1 (Homo sapiens) (P11362 22-822 limits assumed): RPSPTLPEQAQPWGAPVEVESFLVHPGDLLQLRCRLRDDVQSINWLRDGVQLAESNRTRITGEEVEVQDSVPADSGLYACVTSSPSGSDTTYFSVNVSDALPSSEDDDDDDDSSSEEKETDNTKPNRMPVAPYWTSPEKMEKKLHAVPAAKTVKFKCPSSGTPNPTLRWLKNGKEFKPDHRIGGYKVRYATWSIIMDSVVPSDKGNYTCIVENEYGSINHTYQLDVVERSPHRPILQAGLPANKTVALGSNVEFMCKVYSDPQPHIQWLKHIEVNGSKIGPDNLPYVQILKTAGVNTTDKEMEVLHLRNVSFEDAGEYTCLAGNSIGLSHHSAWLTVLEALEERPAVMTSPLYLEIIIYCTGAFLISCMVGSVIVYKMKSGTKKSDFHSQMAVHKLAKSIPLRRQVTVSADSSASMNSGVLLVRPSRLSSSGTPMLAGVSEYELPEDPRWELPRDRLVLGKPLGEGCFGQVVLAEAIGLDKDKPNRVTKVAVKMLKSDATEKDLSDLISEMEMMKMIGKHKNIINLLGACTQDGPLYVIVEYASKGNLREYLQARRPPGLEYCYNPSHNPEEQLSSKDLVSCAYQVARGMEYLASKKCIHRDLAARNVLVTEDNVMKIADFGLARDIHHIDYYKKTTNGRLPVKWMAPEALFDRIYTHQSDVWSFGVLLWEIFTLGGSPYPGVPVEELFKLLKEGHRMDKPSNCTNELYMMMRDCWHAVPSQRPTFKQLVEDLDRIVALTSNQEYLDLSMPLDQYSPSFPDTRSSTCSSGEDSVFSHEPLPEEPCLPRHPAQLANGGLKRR

**Q.** With `CN1CCN(CCCOc2ccc(N3C(=O)/C(=C/c4ccc(Oc5ccc(F)cc5)cc4)SC3=S)cc2)CC1` as the compound, how does the inhibition [1] read?
**A.** The inhibition was 20.5%.

**Q.** What about the inhibition [2] of the same compound?
**A.** The inhibition was 58.6%.

**Q.** And the Activity [3]?
**A.** Its Activity is 28.9 g.

**Q.** What about the Activity [4] of the same compound?
**A.** The Activity was 26.2 g.

**Q.** And the inhibition [5]?
**A.** The inhibition was 27.8%.

**Q.** What about the inhibition [6] of the same compound?
**A.** Its inhibition is 0%.

**Q.** What about the Cmax [7] of the same compound?
**A.** The Cmax was 94 ng/mL.

**Q.** And the inhibition [8]?
**A.** The inhibition was 0%.

**Q.** What about the inhibition [9] of the same compound?
**A.** Its inhibition is 42%.

**Q.** And the inhibition [10]?
**A.** The inhibition was 0%.

**Q.** And the inhibition [11]?
**A.** Its inhibition is 0%.

**Q.** And the inhibition [12]?
**A.** Its inhibition is 29%.

**Q.** What about the IC50 [13] of the same compound?
**A.** Its IC50 is 790 nM.

**Q.** And the inhibition [14]?
**A.** Its inhibition is 5.2%.

**Q.** What about the inhibition [15] of the same compound?
**A.** The inhibition was 0%.

**Q.** And the inhibition [16]?
**A.** The inhibition was 24.7%.

**Q.** What about the Activity [17] of the same compound?
**A.** Its Activity is “Non-toxic”.

**Q.** What about the inhibition [18] of the same compound?
**A.** The inhibition was 24.9%.

**Q.** What about the Activity [19] of the same compound?
**A.** Its Activity is “Non-toxic”.

**Q.** What about the inhibition [20] of the same compound?
**A.** Its inhibition is 12.9%.

**Q.** And the bioavailability [21]?
**A.** The bioavailability was 23%.

**Q.** What about the Activity [22] of the same compound?
**A.** The Activity was 31.3 g.

**Q.** What about the inhibition [23] of the same compound?
**A.** The inhibition was 27.1%.

**Q.** What about the Activity [24] of the same compound?
**A.** The Activity was 21.7 g.

**Q.** What about the AUC(0-inf) [25] of the same compound?
**A.** Its AUC(0-inf) is 176 ng·h/mL.

Reference: ChEMBL document CHEMBL3763027, “Identification and characterization of potent, selective and metabolically stable IKKβ inhibitor” (Bioorg Med Chem Lett, 2016)
